Experimental data from PMC11012124, “Synthesis of Novel Triazine-Based Chalcones and 8,9-dihydro-7H-pyrimido[4,5-b][1,4]diazepines as Potential Leads in the Search of Anticancer, Antibacterial and Antifungal Agents” (International Journal of Molecular Sciences, 2024).

Tests used:
EKVX = assay: cells; conditions: Homo sapiens, 48 h
K-562 = assay: cells; conditions: Homo sapiens, K562, 48 h
LOX IMVI = assay: cells; conditions: Homo sapiens, 48 h
MOLT-4 = assay: cells; conditions: Homo sapiens, MOLT-4, 48 h
PC-3 = assay: cells; conditions: Homo sapiens, PC-3, 48 h
HS 578T = assay: cells; conditions: Homo sapiens, 48 h
SW-620 = assay: cells; conditions: Homo sapiens, SW-620, 48 h
UACC-257 = assay: cells; conditions: Homo sapiens, UACC-257, 48 h
MALME-3M = assay: cells; conditions: Homo sapiens, 48 h
MDA-MB-231/ATCC = assay: cells; conditions: Homo sapiens, MDA-MB-231, 48 h
[1] = Hemolytic activity, spectrophotometric; type: cell-based, human; conditions: human, human red blood cells (huRBC), 5% hematocrit, 200 μg/mL, 37 °C
HCT-116 = assay: cells; conditions: Homo sapiens, HCT-116, 48 h
ACHN = assay: cells; conditions: Homo sapiens, 48 h
NCI-H23 = assay: cells; conditions: Homo sapiens, NCI-H23, 48 h
RPMI-8226 = assay: cells; conditions: Homo sapiens, RPMI-8226, 48 h
BT-549 = assay: cells; conditions: Homo sapiens, BT-549, 48 h
MDA-MB-435 = assay: cells; conditions: Homo sapiens, MDA-MB-435, 48 h
OVCAR-5 = assay: cells; conditions: Homo sapiens, OVCAR-5, 48 h
60 cancer cell lines = assay: NCI-60 one-dose screen (10 μM); type: cell-based; conditions: Homo sapiens; one dose of 10 μM, mean over 60 cancer cell lines; read-out: Mean Growth Percent (MGP)
From the text: Additionally, the mean of the growth percentages (MGP) of each compound against all the 60 cancer cell lines is also reported, which is used as one of the selection criteria to continue with tests at five concentration doses.

SF-539 = assay: cells; conditions: Homo sapiens, SF-539, 48 h
IGROV1 = assay: cells; conditions: Homo sapiens, IGROV-1, 48 h
SN12C = assay: cells; conditions: Homo sapiens, 48 h
OVCAR-8 = assay: cells; conditions: Homo sapiens, OVCAR-8, 48 h
MCF7 = assay: cells; conditions: Homo sapiens, MCF7, 48 h
NCI-H226 = assay: cells; conditions: Homo sapiens, NCI-H226, 48 h
SK-MEL-28 = assay: cells; conditions: Homo sapiens, SK-MEL-28, 48 h
HL-60(TB) = assay: cells; conditions: Homo sapiens, HL-60, 48 h
NCI-H460 = assay: cells; conditions: Homo sapiens, NCI-H460, 48 h
SK-OV-3 = assay: cells; conditions: Homo sapiens, SK-OV-3, 48 h
RXF 393 = assay: cells; conditions: Homo sapiens, RXF 393, 48 h
HCC-2998 = assay: cells; conditions: Homo sapiens, HCC 2998, 48 h
CCRF-CEM = assay: cells; conditions: Homo sapiens, 48 h
SNB-75 = assay: cells; conditions: Homo sapiens, SNB-75, 48 h
A549/ATCC = assay: cells; conditions: Homo sapiens, A549, 48 h
TK-10 = assay: cells; conditions: Homo sapiens, TK-10, 48 h
A498 = assay: cells; conditions: Homo sapiens, A498, 48 h
HOP-92 = assay: cells; conditions: Homo sapiens, HOP-92, 48 h
M14 = assay: cells; conditions: Homo sapiens, M14, 48 h

## COc1cc(/C=C/C(=O)c2cc(OC)c(OC)c(OC)c2)ccc1Oc1nc(NCCO)nc(N2CCOCC2)n1 [20d]
EKVX
  GI50: 2.81 µM
EKVX; read-out: LC50
  CC50: 36.6 µM
K-562; K-562, 48 h
  GI50: 1.91 µM
K-562; read-out: LC50
  CC50: > 100 µM
LOX IMVI
  GI50: 0.642 µM
LOX IMVI; read-out: LC50, LOX IMVI, 48 h
  CC50: 4.99 µM
MOLT-4
  GI50: 1.98 µM
MOLT-4; read-out: LC50
  CC50: > 100 µM
PC-3
  GI50: 3.11 µM
PC-3; read-out: LC50
  CC50: 43.2 µM
HS 578T
  GI50: 3.62 µM
HS 578T; read-out: LC50
  CC50: > 100 µM
SW-620
  GI50: 2.24 µM
SW-620; read-out: LC50
  CC50: 26.4 µM
UACC-257
  GI50: 2.83 µM
UACC-257; read-out: LC50
  CC50: 36.7 µM
MALME-3M
  GI50: 2.67 µM
MALME-3M; read-out: LC50
  CC50: 24.3 µM
MDA-MB-231/ATCC
  GI50: 2.86 µM
MDA-MB-231/ATCC; read-out: LC50
  CC50: 35.4 µM
[1]
  hemolysis at 24 h, 200 µg/mL: 1.2%
HCT-116
  GI50: 1.53 µM
HCT-116; read-out: LC50
  CC50: 6.78 µM
ACHN
  GI50: 1.64 µM
ACHN; read-out: LC50
  CC50: 7.9 µM
NCI-H23
  GI50: 1.99 µM
NCI-H23; read-out: LC50
  CC50: 17.5 µM
RPMI-8226
  GI50: 1.63 µM
RPMI-8226; read-out: LC50
  CC50: > 100 µM
BT-549
  GI50: 1.6 µM
BT-549; read-out: LC50
  CC50: 6.88 µM
MDA-MB-435
  GI50: 3.1 µM
MDA-MB-435; read-out: LC50
  CC50: 35.1 µM
OVCAR-5
  GI50: 3.14 µM
OVCAR-5; read-out: LC50
  CC50: 38.4 µM
60 cancer cell lines
  activity at 10 µM: 0.79%
SF-539
  GI50: 1.88 µM
SF-539; read-out: LC50, SF-539, 48 h
  CC50: 13 µM
IGROV1
  GI50: 2.45 µM
IGROV1; read-out: LC50
  CC50: 26.2 µM
SN12C
  GI50: 1.79 µM
SN12C; read-out: LC50
  CC50: 23.3 µM
OVCAR-8
  GI50: 2.56 µM
OVCAR-8; read-out: LC50
  CC50: 34.7 µM
MCF7
  GI50: 1.72 µM
MCF7; read-out: LC50
  CC50: 61.5 µM
NCI-H226
  GI50: 3.69 µM
NCI-H226; read-out: LC50
  CC50: > 100 µM
SK-MEL-28
  GI50: 1.92 µM
SK-MEL-28; read-out: LC50
  CC50: 7.53 µM
HL-60(TB)
  GI50: 1.54 µM
HL-60(TB); read-out: LC50
  CC50: > 100 µM
NCI-H460
  GI50: 1.87 µM
NCI-H460; read-out: LC50
  CC50: 8.69 µM
SK-OV-3
  GI50: 2.44 µM
SK-OV-3; read-out: LC50
  CC50: 22 µM
RXF 393
  GI50: 1.75 µM
RXF 393; read-out: LC50
  CC50: 6.94 µM
HCC-2998
  GI50: 2.23 µM
HCC-2998; read-out: LC50
  CC50: 7.97 µM
CCRF-CEM
  GI50: 2.38 µM
CCRF-CEM; read-out: LC50
  CC50: > 100 µM
SNB-75
  GI50: 1.79 µM
SNB-75; read-out: LC50
  CC50: 24.2 µM
A549/ATCC
  GI50: 2.78 µM
A549/ATCC; read-out: LC50
  CC50: 42.2 µM
TK-10
  GI50: 3.12 µM
TK-10; read-out: LC50
  CC50: 30.6 µM
A498
  GI50: 3.58 µM
A498; read-out: LC50
  CC50: 37 µM
HOP-92
  GI50: 2.75 µM
HOP-92; read-out: LC50
  CC50: 35.4 µM
M14
  GI50: 2.38 µM
M14; read-out: LC50
  CC50: 37.9 µM
